{
  "source": "ChEMBL document CHEMBL1146505",
  "about": "“Flavonoid glycosides from Adina racemosa and their inhibitory activities on eukaryotic protein synthesis” (2004)",
  "type_in_all_cases": "functional",
  "key": {"[1]": {"test": "(§1) Inhibition of protein synthesis in mouse Krebs cells overexpressing (CAG)33/FF/HCV/Ren mRNA reporter transcript assessed as firefly luciferase production at 100 uM relative to control"}, "[2]": {"test": "(§2) Inhibition of protein synthesis in mouse Krebs cells overexpressing (CAG)33/FF/HCV/Ren mRNA reporter transcript assessed as renilla luciferase production at 100 uM relative to control"}, "Krebs [3]": {"test_system": "Krebs", "test": "as §1"}, "Krebs [4]": {"test_system": "Krebs", "test": "as §2"}, "[5]": {"test": "Inhibition of translation in mouse Krebs cells overexpressing (CAG)33/FF/HCV/Ren mRNA reporter transcript assessed as luciferase production at 100 uM relative to control"}, "Escherichia coli": {"test_system": "Escherichia coli", "test": "Inhibition of bacterial protein synthesis in Escherichia coli S30 overexpressing pBEST/luc and [35S]met assessed as [35S]met incorporation"}, "Oryctolagus cuniculus": {"organism": "Oryctolagus cuniculus", "test": "Inhibition of translation initiation in rabbit reticulocyte lysates with [32P]CAT mRNA assessed as 80S initiation complex formation at 50 uM by ribosome binding assay in presence of cycloheximide"}},
  "note": "Calls of active or inactive are those of the source. The calls are words filed in the database; no cut-off is given here.",
  "data": [
    {"smiles": "C[C@@H]1O[C@@H](OC[C@H]2O[C@@H](Oc3c(-c4ccc(O)c(O)c4)oc4cc(O)cc(O)c4c3=O)[C@H](O)[C@@H](O)[C@H]2OC(=O)/C=C/c2ccc(O)cc2)[C@H](O)[C@H](O)[C@H]1O", "values": [
      {"measurement": "fold change (FC)", "setting": "[1]", "result": 2},
      {"measurement": "fold change (FC)", "setting": "[2]", "result": 2}
    ]},
    {"smiles": "C[C@@H]1O[C@@H](OC[C@H]2O[C@@H](Oc3c(-c4ccc(O)c(O)c4)oc4cc(O)cc(O)c4c3=O)[C@H](O[C@@H]3O[C@@H](C)[C@H](OC(=O)/C=C/c4ccc(O)cc4)[C@@H](O)[C@H]3O)[C@@H](O)[C@H]2OC(=O)/C=C/c2ccc(O)cc2)[C@H](O)[C@H](O)[C@H]1O", "values": [
      {"measurement": "Activity", "setting": "Krebs [3]", "result": "Active"},
      {"measurement": "Activity", "setting": "Krebs [4]", "result": "Active"},
      {"measurement": "fold change (FC)", "setting": "[5]", "result": 5}
    ]},
    {"smiles": "C[C@@H]1O[C@@H](OC[C@H]2O[C@@H](Oc3c(-c4ccc(O)c(O)c4)oc4cc(O)cc(O)c4c3=O)[C@H](O[C@@H]3O[C@@H](C)[C@H](OC(=O)/C=C/c4ccc(O)cc4)[C@@H](O)[C@H]3O)[C@@H](OC(=O)/C=C/c3ccc(O)cc3)[C@H]2O)[C@H](O)[C@H](O)[C@H]1O", "values": [
      {"measurement": "Activity", "setting": "Krebs [3]", "result": "Active"},
      {"measurement": "Activity", "setting": "Krebs [4]", "result": "Active"},
      {"measurement": "fold change (FC)", "setting": "[5]", "result": 10}
    ]},
    {"smiles": "C[C@@H]1O[C@@H](OC[C@H]2O[C@@H](Oc3c(-c4ccc(O)cc4)oc4cc(O)cc(O)c4c3=O)[C@H](O[C@@H]3O[C@@H](C)[C@H](OC(=O)/C=C/c4ccc(O)cc4)[C@@H](O)[C@H]3O)[C@@H](O)[C@H]2OC(=O)/C=C/c2ccc(O)cc2)[C@H](O)[C@H](O)[C@H]1O", "values": [
      {"measurement": "Activity", "setting": "Krebs [3]", "result": "Active"},
      {"measurement": "Activity", "setting": "Krebs [4]", "result": "Active"},
      {"measurement": "fold change (FC)", "setting": "[5]", "result": 5}
    ]},
    {"smiles": "C[C@@H]1O[C@@H](OC[C@H]2O[C@@H](Oc3c(-c4ccc(O)c(O)c4)oc4cc(O)cc(O)c4c3=O)[C@H](O)[C@@H](OC(=O)/C=C/c3ccc(O)cc3)[C@H]2O)[C@H](O)[C@H](O)[C@H]1O", "values": [
      {"measurement": "fold change (FC)", "setting": "[1]", "result": 2},
      {"measurement": "fold change (FC)", "setting": "[2]", "result": 2}
    ]},
    {"smiles": "C[C@@H]1O[C@@H](OC[C@H]2O[C@@H](Oc3c(-c4ccc(O)cc4)oc4cc(O)cc(O)c4c3=O)[C@H](O)[C@@H](O)[C@H]2OC(=O)/C=C/c2ccccc2)[C@H](O)[C@H](O)[C@H]1O", "values": [
      {"measurement": "fold change (FC)", "setting": "[1]", "result": 2},
      {"measurement": "fold change (FC)", "setting": "[2]", "result": 2}
    ]},
    {"smiles": "C[C@@H]1O[C@@H](OC[C@H]2O[C@@H](Oc3c(-c4ccc(O)c(O)c4)oc4cc(O)cc(O)c4c3=O)[C@H](O[C@@H]3O[C@@H](C)[C@H](OC(=O)/C=C/c4ccc(O)c(O)c4)[C@@H](O)[C@H]3O)[C@@H](OC(=O)/C=C/c3ccc(O)cc3)[C@H]2O)[C@H](O)[C@H](O)[C@H]1O", "values": [
      {"measurement": "Activity", "setting": "Krebs [3]", "result": "Active"},
      {"measurement": "Activity", "setting": "Krebs [4]", "result": "Active"},
      {"measurement": "fold change (FC)", "setting": "[5]", "result": 10},
      {"measurement": "Activity", "setting": "Escherichia coli", "result": "inactive"},
      {"measurement": "Activity", "setting": "Oryctolagus cuniculus", "result": "inactive"}
    ]}
  ]
}
